{
  "source": "paper PMC9036655",
  "about": "(RSC Advances, 2021)",
  "data": [
    {"system": "M. tuberculosis H37Rv", "experiment": "Antimycobacterial activity against M. tuberculosis H37Rv", "type": "cell-based, Mycobacterium tuberculosis", "settings": "M. tuberculosis H37Rv; MIC90, average of three measurements", "units": {"MIC": "µg/mL"}, "values": [
      {"compound": "4-Methyl-3-(((1-(4-(trifluoromethoxy)benzoyl)piperidin-4-yl)amino)methyl)-5,6,7,8-tetrahydroquinolin-2(1H)-one [6d10]", "MIC": ">50"}
    ]},
    {"system": "M. tuberculosis H37Rv", "experiment": "Antimycobacterial activity against M. tuberculosis H37Rv", "type": "cell-based, Mycobacterium tuberculosis", "settings": "Mycobacterium tuberculosis, H37RV, read-out: % inhibition 20 μg mL^−1, M. tuberculosis H37Rv; 20 μg mL^−1", "units": {"inhibition at 20 µg/mL": "%"}, "values": [
      {"compound": "Cc1[nH]c(=O)c(CNC(=O)c2ccc(Cl)nc2)c2c1CCCC2", "note": "[6b24, 6-Chloro-N-((1-methyl-3-oxo-2,3,5,6,7,8-hexahydroisoquinolin-4-yl)methyl)nicotinamide]", "inhibition at 20 µg/mL": 98.3},
      {"compound": "Cc1[nH]c(=O)c(CNC(=O)c2ccc(Br)nc2)c2c1CCCC2", "note": "[6b25, 6-Bromo-N-((1-methyl-3-oxo-2,3,5,6,7,8-hexahydroisoquinolin-4-yl)methyl)nicotinamide]", "inhibition at 20 µg/mL": 98.9},
      {"compound": "Cc1ccc(C(=O)NCc2c3c(c(C)[nH]c2=O)CCCC3)cn1", "note": "[6b27, 6-Methyl-N-((1-methyl-3-oxo-2,3,5,6,7,8-hexahydroisoquinolin-4-yl)methyl)nicotinamide]", "inhibition at 20 µg/mL": 98.6},
      {"compound": "Cc1[nH]c(=O)c(CNC(=O)c2ccc([N+](=O)[O-])nc2)c2c1CCCC2", "note": "[6b28, N-((1-Methyl-3-oxo-2,3,5,6,7,8-hexahydroisoquinolin-4-yl)methyl)-6-nitronicotinamide]", "inhibition at 20 µg/mL": 98.9},
      {"compound": "Cc1[nH]c(=O)c(CNC(=O)c2cc([N+](=O)[O-])co2)c2c1CCCC2", "note": "[6b30, N-((1-Methyl-3-oxo-2,3,5,6,7,8-hexahydroisoquinolin-4-yl)methyl)-4-nitrofuran-2-carboxamide]", "inhibition at 20 µg/mL": 78.2},
      {"compound": "Cc1[nH]c(=O)c(CNC(=O)c2ccc(Br)o2)c2c1CCCC2", "note": "[6b31, 5-Bromo-N-((1-methyl-3-oxo-2,3,5,6,7,8-hexahydroisoquinolin-4-yl)methyl)furan-2-carboxamide]", "inhibition at 20 µg/mL": 97.7},
      {"compound": "Cc1[nH]c(=O)c(CNC(=O)c2ccc([N+](=O)[O-])s2)c2c1CCCC2", "note": "[6b32, N-((1-Methyl-3-oxo-2,3,5,6,7,8-hexahydroisoquinolin-4-yl)methyl)-5-nitrothiophene-2-carboxamide]", "inhibition at 20 µg/mL": 96.4},
      {"compound": "Cc1[nH]c(=O)c(CNC(=O)c2cn[nH]c2)c2c1CCCC2", "note": "[6b35, N-((1-Methyl-3-oxo-2,3,5,6,7,8-hexahydroisoquinolin-4-yl)methyl)-1H-pyrazole-4-carboxamide]", "inhibition at 20 µg/mL": 94.6},
      {"compound": "Cc1[nH]c(=O)c(CNC(=O)c2ccno2)c2c1CCCC2", "note": "[6b36, N-((1-Methyl-3-oxo-2,3,5,6,7,8-hexahydroisoquinolin-4-yl)methyl)isoxazole-5-carboxamide]", "inhibition at 20 µg/mL": 25.1},
      {"compound": "COc1cc(OC)cc(-c2ccc(C(=O)NCc3c(C)cc(C4CC4)[nH]c3=O)cc2)c1", "note": "[7a2, N-((6-Cyclopropyl-4-methyl-2-oxo-1,2-dihydropyridin-3-yl)methyl)-3′,5′-dimethoxy-[1,1′-biphenyl]-4-carboxamide]", "inhibition at 20 µg/mL": 21},
      {"compound": "COc1cc(OC)cc(-c2ccc(C(=O)NCc3c(C)cc(-c4ccccc4)[nH]c3=O)cc2)c1", "note": "[7b2, 3′,5′-Dimethoxy-N-((4-methyl-2-oxo-6-phenyl-1,2-dihydropyridin-3-yl)methyl)-[1,1′-biphenyl]-4-carboxamide]", "inhibition at 20 µg/mL": 33},
      {"compound": "Cc1cc(C)c(CNC(=O)c2ccc([N+](=O)[O-])o2)c(=O)[nH]1", "note": "[8a1, N-((4,6-Dimethyl-2-oxo-1,2-dihydropyridin-3-yl)methyl)-5-nitrofuran-2-carboxamide]", "inhibition at 20 µg/mL": 75.3},
      {"compound": "CCc1cc(CC)c(CNC(=O)c2ccc([N+](=O)[O-])o2)c(=O)[nH]1", "note": "[8a3, N-((4,6-Diethyl-2-oxo-1,2-dihydropyridin-3-yl)methyl)-5-nitrofuran-2-carboxamide]", "inhibition at 20 µg/mL": 98.1},
      {"compound": "Cc1cc(C)c(CNC(=O)c2ccc(C(F)(F)F)cc2)c(=O)[nH]1", "note": "[8a4, N-((4,6-Dimethyl-2-oxo-1,2-dihydropyridin-3-yl)methyl)-4-(trifluoromethyl)benzamide]", "inhibition at 20 µg/mL": 87.6},
      {"compound": "CCc1cc(CC)c(CNC(=O)c2ccc(C(F)(F)F)nc2)c(=O)[nH]1", "note": "[8a5, N-((4,6-Diethyl-2-oxo-1,2-dihydropyridin-3-yl)methyl)-6-(trifluoromethyl)nicotinamide]", "inhibition at 20 µg/mL": 94.4},
      {"compound": "Cc1[nH]c(=O)c(CNCc2ccc(C(F)(F)F)cc2)c2c1CCCC2", "note": "[10a1, 1-Methyl-4-(((4-(trifluoromethyl)benzyl)amino)methyl)-5,6,7,8-tetrahydroisoquinolin-3(2H)-one]", "inhibition at 20 µg/mL": 65.7},
      {"compound": "Cc1[nH]c(=O)c(CNS(=O)(=O)c2ccc(C(F)(F)F)nc2)c2c1CCCC2", "note": "[10a2, N-((1-Methyl-3-oxo-2,3,5,6,7,8-hexahydroisoquinolin-4-yl)methyl)-6-(trifluoromethyl)pyridine-3-sulfonamide]", "inhibition at 20 µg/mL": 92.7}
    ]},
    {"system": "M. tuberculosis H37Rv", "experiment": "Antimycobacterial activity against M. tuberculosis H37Rv", "type": "cell-based, Mycobacterium tuberculosis", "settings": "Mycobacterium tuberculosis, H37RV, read-out: % inhibition 50 μg mL^−1, M. tuberculosis H37Rv; 50 μg mL^−1", "units": {"inhibition at 50 µg/mL": "%"}, "values": [
      {"compound": "Cc1[nH]c(=O)c(CNC(=O)c2ccc([N+](=O)[O-])s2)c2c1CCC2", "note": "[6a1, N-((1-Methyl-3-oxo-3,5,6,7-tetrahydro-2H-cyclopenta[c]pyridin-4-yl)methyl)-5-nitrothiophene-2-carboxamide]", "inhibition at 50 µg/mL": 53},
      {"compound": "Cc1[nH]c(=O)c(CNC(=O)c2ccc(F)nc2)c2c1CCC2", "note": "[6a2, 6-Fluoro-N-((1-methyl-3-oxo-3,5,6,7-tetrahydro-2H-cyclopenta[c]pyridin-4-yl)methyl)nicotinamide]", "inhibition at 50 µg/mL": 14},
      {"compound": "Cc1[nH]c(=O)c(CNC(=O)c2ccc(Br)nc2)c2c1CCCCC2", "note": "[6c1, 6-Bromo-N-((1-methyl-3-oxo-3,5,6,7,8,9-hexahydro-2H-cyclohepta[c]pyridin-4-yl)methyl)nicotinamide]", "inhibition at 50 µg/mL": 33},
      {"compound": "Cc1c2c([nH]c(=O)c1CNC(=O)c1ccc([N+](=O)[O-])s1)CCCC2", "note": "[6d5, N-((4-Methyl-2-oxo-1,2,5,6,7,8-hexahydroquinolin-3-yl)methyl)-5-nitrothiophene-2-carboxamide]", "inhibition at 50 µg/mL": 100},
      {"compound": "COc1cc(OC)cc(C(=O)NCc2c(C)c3c([nH]c2=O)CCCC3)c1", "note": "[6d6, 3,5-Dimethoxy-N-((4-methyl-2-oxo-1,2,5,6,7,8-hexahydroquinolin-3-yl)methyl)benzamide]", "inhibition at 50 µg/mL": 100},
      {"compound": "Cc1c2c([nH]c(=O)c1CNC(=O)c1ccc(C(F)(F)F)nc1Cl)CCCC2", "note": "[6d7, 2-Chloro-N-((4-methyl-2-oxo-1,2,5,6,7,8-hexahydroquinolin-3-yl)methyl)-6-(trifluoromethyl)nicotinamide]", "inhibition at 50 µg/mL": 99},
      {"compound": "Cc1c2c([nH]c(=O)c1CNC(=O)c1ccc(-c3ccc(C(F)(F)F)nc3)cc1)CCCC2", "note": "[6d9, N-((4-Methyl-2-oxo-1,2,5,6,7,8-hexahydroquinolin-3-yl)methyl)-4-(6-(trifluoromethyl)pyridin-3-yl)benzamide]", "inhibition at 50 µg/mL": 18},
      {"compound": "Cc1c(CNC(=O)c2ccc(C(F)(F)F)nc2)c(=O)[nH]c2ccccc12", "note": "[9a1, N-((4-Methyl-2-oxo-1,2-dihydroquinolin-3-yl)methyl)-6-(trifluoromethyl)nicotinamide]", "inhibition at 50 µg/mL": 2},
      {"compound": "COc1cc(OC)cc(-c2ccc(C(=O)NCc3c(C)c4ccccc4[nH]c3=O)cc2)c1", "note": "[9a2, 3′,5′-Dimethoxy-N-((4-methyl-2-oxo-1,2-dihydroquinolin-3-yl)methyl)-[1,1′-biphenyl]-4-carboxamide]", "inhibition at 50 µg/mL": 15},
      {"compound": "Cc1c(CNC(=O)c2ccc(-c3ccc(C(F)(F)F)nc3)cc2)c(=O)[nH]c2ccccc12", "note": "[9a3, N-((4-Methyl-2-oxo-1,2-dihydroquinolin-3-yl)methyl)-4-(6-(trifluoromethyl)pyridin-3-yl)benzamide]", "inhibition at 50 µg/mL": 13},
      {"compound": "Cc1c(CNC(=O)c2cnc(C(F)(F)F)nc2)c(=O)[nH]c2ccccc12", "note": "[9a4, N-((4-Methyl-2-oxo-1,2-dihydroquinolin-3-yl)methyl)-2-(trifluoromethyl)pyrimidine-5-carboxamide]", "inhibition at 50 µg/mL": 3}
    ]}
  ]
}
